The results in this text go back to ChEMBL document CHEMBL3414509, “A FRET-based assay for screening SIRT6 modulators” (Eur J Med Chem, 2015).

The target of one assay is Trypsin (Homo sapiens) (UniProt P07477+P07478+P35030). The experiment in a line: Activity of trypsin (unknown origin) assessed as enzyme-mediated compound hydrolysis by measuring increase in fluorescence at 10 uM incubated for 1 hr at 37 degC relative to control. In kind it is protein assay.
Assay [1] has as its target NAD-dependent protein deacylase sirtuin-6 (Homo sapiens) (UniProt Q8N6T7). As to the kind of experiment: Inhibition of SIRT6 (unknown origin) at 300 uM using (DABCYL)ISGASE(MyK)DIVHSE(EDANS)G substrate in presence of NAD followed by 1 hr incubation with trypsin by FRET assay.
In assay [2] the target is T1, NAD-dependent protein deacetylase sirtuin-1 (Homo sapiens) (UniProt Q96EB6).
T1 sequence (whole entry): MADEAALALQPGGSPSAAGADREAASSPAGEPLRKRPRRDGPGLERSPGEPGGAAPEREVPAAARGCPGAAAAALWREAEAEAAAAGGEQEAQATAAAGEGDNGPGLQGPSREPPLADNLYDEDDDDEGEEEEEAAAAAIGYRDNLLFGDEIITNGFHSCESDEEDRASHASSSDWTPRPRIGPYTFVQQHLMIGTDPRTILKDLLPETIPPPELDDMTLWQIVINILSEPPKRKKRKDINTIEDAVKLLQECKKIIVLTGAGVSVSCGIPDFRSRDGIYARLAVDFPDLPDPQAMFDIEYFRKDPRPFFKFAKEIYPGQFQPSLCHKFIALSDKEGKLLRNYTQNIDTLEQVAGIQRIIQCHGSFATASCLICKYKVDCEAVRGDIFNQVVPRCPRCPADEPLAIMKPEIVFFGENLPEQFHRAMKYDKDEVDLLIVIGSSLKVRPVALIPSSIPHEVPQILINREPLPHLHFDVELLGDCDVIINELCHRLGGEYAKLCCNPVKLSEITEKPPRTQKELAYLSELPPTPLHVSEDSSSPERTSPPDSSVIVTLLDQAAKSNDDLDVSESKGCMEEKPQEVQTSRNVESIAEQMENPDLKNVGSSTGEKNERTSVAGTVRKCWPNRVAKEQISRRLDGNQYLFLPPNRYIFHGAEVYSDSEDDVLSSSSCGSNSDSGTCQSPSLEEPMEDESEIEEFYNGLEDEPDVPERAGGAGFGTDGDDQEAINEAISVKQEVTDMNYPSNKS
As to the kind of experiment: Inhibition of SIRT1 (unknown origin) at 300 uM using (DABCYL)ISGASE(AcK)DIVHSE(EDANS)G substrate in presence of NAD followed by 1 hr incubation with trypsin by FRET assay.

The target of assay [3] is NAD-dependent protein deacylase sirtuin-6 (Homo sapiens) (UniProt Q8N6T7). The experiment in a line: Activity of SIRT6 (unknown origin) assessed as enzyme-mediated compound hydrolysis at 10 uM incubated for 60 mins in presence of NAD followed by 1 hr incubation with trypsin.
Chain of NAD-dependent protein deacylase sirtuin-6 (Homo sapiens) (Q8N6T7 whole entry): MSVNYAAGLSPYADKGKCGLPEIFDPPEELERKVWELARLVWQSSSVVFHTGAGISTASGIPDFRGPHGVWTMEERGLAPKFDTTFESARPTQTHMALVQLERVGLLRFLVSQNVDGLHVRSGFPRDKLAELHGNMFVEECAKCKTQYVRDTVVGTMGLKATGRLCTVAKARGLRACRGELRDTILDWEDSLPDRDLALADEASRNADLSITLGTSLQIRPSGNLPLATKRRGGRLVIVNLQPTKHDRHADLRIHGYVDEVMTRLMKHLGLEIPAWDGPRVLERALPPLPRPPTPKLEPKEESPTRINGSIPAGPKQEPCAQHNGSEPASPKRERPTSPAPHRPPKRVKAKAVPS

The source made the active and inactive calls. No cut-off for these calls is given here. Peptide text beside a SMILES is read from it. * marks the point of attachment. X1 = CN(C)c1ccc(/N=N/c2ccc(C(=O)*)cc2)cc1; EDANS = O=S(=O)(O)c1cccc2c(NCCN*)cccc12; Myristoyl = CCCCCCCCCCCCCC(=O)* Some results are limits rather than exact numbers.

The inhibition is how much of the control response was suppressed.

Turning to `CC[C@H](C)[C@H](NC(=O)c1ccc(/N=N/c2ccc(N(C)C)cc2)cc1)C(=O)N[C@@H](CO)C(=O)NCC(=O)N[C@@H](C)C(=O)N[C@@H](CO)C(=O)N[C@@H](CCC(=O)O)C(=O)N[C@@H](CCCCN)C(=O)N[C@@H](CC(=O)O)C(=O)N[C@H](C(=O)N[C@H](C(=O)N[C@@H](Cc1cnc[nH]1)C(=O)N[C@@H](CO)C(=O)N[C@@H](CCC(=O)NCCNc1cccc2c(S(=O)(=O)O)cccc12)C(=O)NCC(=O)O)C(C)C)[C@@H](C)CC` (HELM PEPTIDE1{[CN(C)c1ccc(/N=N/c2ccc(C(=O)[*:2])cc2)cc1].I.S.G.A.S.E.K.D.I.V.H.S.E.G}|CHEM1{[O=S(=O)(O)c1cccc2c(NCCN[*:1])cccc12]}$PEPTIDE1,CHEM1,14:R3-1:R1$$$V2.0), the fold change (FC) on Trypsin (Homo sapiens) amounted to 15. For `N#C/C(=C\c1ccc(-c2cc(Cl)ccc2Cl)o1)C(=O)Nc1cccc2ncccc12`, the inhibition in assay [1] was under 50%.

As for `CC(NC(=O)c1ccccc1/N=C/c1c(O)ccc2ccccc12)c1ccccc1` (configuration not stated), the inhibition in assay [1] was under 50%. Turning to `O=C1CCc2c(ccc3ccccc23)O1`, in assay [1], the inhibition was under 50%.

As to `NC(=O)c1cccnc1`, in assay [1], the inhibition is over 50%. Besides, the inhibition entry in assay [2] is “Active”. On to `CCCCCCCCCCCCCC(=O)NCCCC[C@H](NC(=O)[C@H](CCC(=O)O)NC(=O)[C@H](CO)NC(=O)[C@H](C)NC(=O)CNC(=O)[C@H](CO)NC(=O)[C@@H](NC(=O)c1ccc(/N=N/c2ccc(N(C)C)cc2)cc1)[C@@H](C)CC)C(=O)N[C@@H](CC(=O)O)C(=O)N[C@H](C(=O)N[C@H](C(=O)N[C@@H](Cc1cnc[nH]1)C(=O)N[C@@H](CO)C(=O)N[C@@H](CCC(=O)NCCNc1cccc2c(S(=O)(=O)O)cccc12)C(=O)NCC(=O)O)C(C)C)[C@@H](C)CC` (X1-ISGASEK(Myristoyl)DIVHSE(EDANS)G-OH), for which, in assay [3], the fold change (FC) was 10.
